# Assay results published in patent publication US5567692A, “9-[(substituted glycyl) amido)]-6-demethyl-6-deoxytetracyclines” (priority 1995, dated 1996).
# Where a name gives a salt, the structure may show the parent alone. Read-outs that look alike come from different tables or passages of the source.
# Key:
# E. coli ATCC 25922 = assay: MIC, agar dilution; type: cell-based; conditions: Escherichia coli, ATCC25922, 18 h
# S. aureus IVES 1983 = assay: MIC, agar dilution; type: cell-based; conditions: Staphylococcus aureus, IVES1983, 18 h
# [1] = test system: Ps. aeruginosa ATCC 27853; assay: MIC, agar dilution; type: cell-based; conditions: Pseudomonas aeruginosa, ATCC27853, 18 h
# [2] = test system: E. coli MC 4100 Tet sens.; assay: MIC, agar dilution; type: cell-based; conditions: Escherichia coli, 18 h
# E. coli J3272 Tet C = assay: microbe, parasite or virus in culture; type: cell-based; conditions: Escherichia coli, J3272TETC, 18 h
# Enterococcus 12201 = assay: MIC, agar dilution; type: cell-based; conditions: Enterococcus, 12201, 18 h
# [3] = test system: S. aureus UBMS 88-7 Tet K; assay: microbe, parasite or virus in culture; type: cell-based; conditions: Staphylococcus aureus, UBMS887TETK, 18 h
# E. coli J2175 = assay: MIC, agar dilution; type: cell-based; conditions: Escherichia coli, 18 h, read-out: MIC
# E. coli BAJ9003 IMP MUT = assay: microbe, parasite or virus in culture; type: cell-based; conditions: Escherichia coli, BAJ9003IMPMUT, 18 h
# S. aureus IVES 2943 = assay: MIC, agar dilution; type: cell-based; conditions: Staphylococcus aureus, IVES2943, 18 h
# S. aureus ATCC 29213 = assay: MIC, agar dilution; type: cell-based; conditions: Staphylococcus aureus, ATCC29213, 18 h, S. aureus ATCC 29213
# E. coli PRP1 Tet A = assay: microbe, parasite or virus in culture; type: cell-based; conditions: Escherichia coli, PRP1TETA, 18 h
# E. coli #311 (MP) = assay: MIC, agar dilution; type: cell-based; conditions: Escherichia coli, 18 h
# E. coli UBMS 90-4 Tet M = assay: microbe, parasite or virus in culture; type: cell-based; conditions: Escherichia coli, UBMS904TETM, 18 h
# [4] = test system: E. coli MC 4100 TNIOC Tet B; assay: microbe, parasite or virus in culture; type: cell-based; conditions: Escherichia coli, 18 h
# [5] = test system: S. aureus UBMS 88-5 Tet M; assay: microbe, parasite or virus in culture; type: cell-based; conditions: Staphylococcus aureus, UBMS885TETM, 18 h
# [6] = test system: S. aureus UBMS 90-2 Tet M; assay: microbe, parasite or virus in culture; type: cell-based; conditions: Staphylococcus aureus, UBMS902TETM, 18 h
# S. aureus SMITH (MP) = assay: MIC, agar dilution; type: cell-based; conditions: Staphylococcus aureus, 18 h
# [7] = test system: X. maltophilia NEMC 87210; assay: MIC, agar dilution; type: cell-based; conditions: Stenotrophomonas maltophilia, NEMC87210, 18 h
# S. aureus UBMS 88-4 = assay: MIC, agar dilution; type: cell-based; conditions: Staphylococcus aureus, UBMS884, 18 h
# E. coli UBMS 88-1 Tet B = assay: microbe, parasite or virus in culture; type: cell-based; conditions: Escherichia coli, UBMS881TETB, 18 h
# E. faecalis ATCC 29212 = assay: MIC, agar dilution; type: cell-based; conditions: Enterococcus faecalis, ATCC29212, 18 h
# E. coli UBMS 89-1 Tet M = assay: microbe, parasite or virus in culture; type: cell-based; conditions: Escherichia coli, UBMS891TETM, 18 h
# S. aureus NEMC 8769 = assay: MIC, agar dilution; type: cell-based; conditions: Staphylococcus aureus, NEMC8769, 18 h
# S. aureus ROSE (MP) = assay: MIC, agar dilution; type: cell-based; conditions: Staphylococcus aureus, 18 h
# [8] = test system: E. coli UBMS 89-2 Tet sens.; assay: MIC, agar dilution; type: cell-based; conditions: Escherichia coli, 18 h
# S. marcescens FPOR 8733 = assay: MIC, agar dilution; type: cell-based; conditions: Serratia marcescens, FPOR8733, 18 h, read-out: MIC
# [9] = test system: S. hemolyticus AVHAH 88-3; assay: MIC, agar dilution; type: cell-based; conditions: Streptococcus pyogenes, AVHAH883, 18 h
# [10] = test system: S. aureus UBMS 90-1 Tet M; assay: microbe, parasite or virus in culture; type: cell-based; conditions: Staphylococcus aureus, UBMS901TETM, 18 h
# S. aureus UBMS 90-3 = assay: MIC, agar dilution; type: cell-based; conditions: Staphylococcus aureus, UBMS903, 18 h
# E. coli UBMS 90-5 = assay: microbe, parasite or virus in culture; type: cell-based; conditions: Escherichia coli, UBMS905, 18 h, E. coli UBMS 90-5; read-out: MIC
# E. coli J3272 Tet D = assay: microbe, parasite or virus in culture; type: cell-based; conditions: Escherichia coli, J3272TETD, 18 h
# [11] = test system: Staphylococcus aureus strain Smith (tetracycline sensitive); assay: Acute lethal infection in mice, S. aureus Smith; type: in vivo; conditions: for ED50: Staphylococcus aureus, 168 h, mice, S. aureus Smith (Sens), 7 day survival, read-out: ED50
# [12] = Ps. aeruginosa ATCC 27853, read-out: MIC
# [13] = Enterococcus 12201, read-out: MIC
# [14] = S. aureus SMITH (MP), read-out: MIC
# [15] = E. faecalis ATCC 29212, read-out: MIC
# [16] = S. hemolyticus AVHAH 88-3, read-out: MIC
# [17] = S. aureus IVES 1983, read-out: MIC
# [18] = S. aureus IVES 2943, read-out: MIC
# [19] = E. coli #311 (MP), read-out: MIC
SMILES,MIC [2] [µg/mL],MIC (E. coli J3272 Tet C) [µg/mL],MIC [3] [µg/mL],MIC (E. coli J2175) [µg/mL],MIC (E. coli BAJ9003 IMP MUT) [µg/mL],MIC (E. coli PRP1 Tet A) [µg/mL],MIC (E. coli UBMS 90-4 Tet M) [µg/mL],MIC [5] [µg/mL],MIC [6] [µg/mL],MIC (S. aureus SMITH (MP); [14]) [µg/mL],MIC (S. aureus UBMS 88-4) [µg/mL],MIC (E. coli UBMS 88-1 Tet B) [µg/mL],MIC (E. faecalis ATCC 29212; [15]) [µg/mL],MIC (E. coli UBMS 89-1 Tet M) [µg/mL],MIC [8] [µg/mL],MIC (S. marcescens FPOR 8733) [µg/mL],"MIC [9, 16] [µg/mL]",MIC [10] [µg/mL],MIC (E. coli UBMS 90-5) [µg/mL],MIC (E. coli J3272 Tet D) [µg/mL],other results
"CN(C)CC(=O)Nc1ccc2c(c1O)C(=O)C1=C(O)[C@]3(O)C(=O)C(C(=O)NCN4CCCC4)=C(O)[C@@H](N(C)C)C3CC1C2 (stereo partly drawn) [EE, [4S-(4alpha,12aalpha)]-4-(Dimethylamino)-9-[[(dimethylamino)acetyl]amino]-1,4,4a,5,5a,6,11,12a-octahydro-3,10,12,12a-tetrahydroxy-1,11-dioxo-N-(l-pyrrolidinylmethyl)-2-naphthacenecarboxamide]",0.12,1,1,0.5,0.12,2,0.25,0.25,0.25,0.25,0.25,0.5,0.12,0.25,0.5,4,0.5,0.25,0.25,0.25,"MIC (E. coli ATCC 25922): 0.25 µg/mL; MIC (S. aureus IVES 1983): 2 µg/mL; MIC [1, 12]: 16 µg/mL; MIC (Enterococcus 12201; [13]): 0.25 µg/mL; MIC (S. aureus IVES 2943): 2 µg/mL; MIC (S. aureus ATCC 29213; read-out: MIC): 0.25 µg/mL; MIC (E. coli #311 (MP)): 0.5 µg/mL; MIC [4]: 0.5 µg/mL; MIC ([7]; X. maltophilia NEMC 87210, read-out: MIC): 2 µg/mL; MIC (S. aureus NEMC 8769; read-out: MIC): 0.25 µg/mL; MIC (S. aureus ROSE (MP)): 8 µg/mL; MIC (S. aureus UBMS 90-3; S. aureus UBMS 90-3): 0.12 µg/mL"
"CN(C)[C@@H]1C(O)=C(C(N)=O)C(=O)[C@@]2(O)C(O)=C3C(=O)c4c(ccc(NC(=O)CNCc5ccccc5)c4O)CC3CC12 (stereo partly drawn) [J, [4S-(4alpha,12aalpha)]-4-(Dimethylamino)-1,4,4a,5,5a,6,11,12a-octahydro-3,10,12,12a-tetrahydroxy-1,11-dioxo-9-[[[(phenylmethyl)amino]acetyl]amino]-2-naphthacenecarboxamide dihydrochloride]",0.5,4,4,4,0.5,4,4,2,1,,1,4,,2,,> 32,4,4,4,4,MIC (E. coli ATCC 25922; read-out: MIC): 4 µg/mL; MIC (S. aureus IVES 1983; [17]): 4 µg/mL; MIC [1]: > 32 µg/mL; MIC (Enterococcus 12201): 2 µg/mL; MIC (S. aureus IVES 2943; [18]): 4 µg/mL; MIC (S. aureus ATCC 29213): 1 µg/mL; MIC (E. coli #311 (MP); [19]): 4 µg/mL; MIC (S. aureus SMITH (MP)): 0.5 µg/mL; MIC [7]: 16 µg/mL; MIC (E. faecalis ATCC 29212): 0.25 µg/mL; MIC (S. aureus NEMC 8769): 1 µg/mL; MIC (S. aureus ROSE (MP); read-out: MIC): 8 µg/mL; MIC (S. aureus UBMS 90-3): 0.5 µg/mL
"CCN(CC)CC(=O)Nc1ccc2c(c1O)C(=O)C1=C(O)[C@]3(O)C(=O)C(C(N)=O)=C(O)[C@@H](N(C)C)C3CC1C2 (stereo partly drawn) [O, [4S-(4alpha,12aalpha)]-9-[[(Diethylamino)acetyl]amino]-4-(dimethylamino)-1,4,4a,5,5a,6,11,12a-octahydro-3,10,12,12a-tetrahydroxy-1,11-dioxo-2-naphthacenecarboxamide dihydrochloride]",0.5,1,0.5,1,0.12,,0.5,0.5,0.5,0.25,0.5,1,0.25,0.5,1,8,,0.5,1,0.5,"MIC (E. coli ATCC 25922; read-out: MIC): 0.5 µg/mL; MIC (S. aureus IVES 1983): 0.5 µg/mL; MIC [1]: 32 µg/mL; MIC (Enterococcus 12201; [13]): 0.25 µg/mL; MIC (S. aureus IVES 2943): 1 µg/mL; MIC (S. aureus ATCC 29213): 0.5 µg/mL; MIC (E. coli #311 (MP)): 1 µg/mL; MIC [4]: 1 µg/mL; MIC [7]: 1 µg/mL; MIC (S. aureus NEMC 8769): 1 µg/mL; MIC (S. aureus ROSE (MP)): 2 µg/mL; MIC [9]: 2 µg/mL; MIC (S. aureus UBMS 90-3; S. aureus UBMS 90-3, read-out: MIC): 0.25 µg/mL"
"CCCNCC(=O)Nc1ccc2c(c1O)C(=O)C1=C(O)[C@]3(O)C(=O)C(C(N)=O)=C(O)[C@@H](N(C)C)C3CC1C2 (stereo partly drawn) [C, [4S-(4alpha,12aalpha)]-4-(Dimethylamino)-1,4,4a,5,5a,6,11,12a-octahydro-3,10,12,12a-tetrahydroxy-1,11-dioxo-9-[[(propylamino)acetyl]amino]-2-naphthacenecarboxamide dihydrochloride]",0.12,0.5,2,0.25,0.06,1,0.25,0.5,0.25,0.12,0.25,0.5,0.12,0.25,0.25,4,0.5,0.25,0.25,0.12,"MIC (E. coli ATCC 25922): 0.12 µg/mL; MIC (S. aureus IVES 1983; [17]): 4 µg/mL; ED50 ([11]; iv, Intraveneous): 1 to 2 mg/kg; ED50 ([11]; po, Oral): > 16 mg/kg; in vivo activity (in words) ([11]; tested intravenously against the minocycline sensitive organism S. aureus Smith): very good in vivo activity; MIC [1, 12]: 16 µg/mL; MIC (Enterococcus 12201): 0.25 µg/mL; MIC (S. aureus IVES 2943; [18]): 4 µg/mL; MIC (S. aureus ATCC 29213; read-out: MIC): 0.25 µg/mL; MIC (E. coli #311 (MP); [19]): 0.5 µg/mL; MIC [7]: 4 µg/mL; MIC (S. aureus NEMC 8769): 0.06 µg/mL; MIC (S. aureus ROSE (MP); read-out: MIC): 16 µg/mL; MIC (S. aureus UBMS 90-3): 0.06 µg/mL"
